Test results published in article PMC7324608 (Scientific Reports, 2020).
Where a chain is given by its changes, count along the chain named. Like-named read-outs stand apart in the source and are kept apart here.

How the values were obtained:
HpHtrA [1] = biological target: T1, HpHtrA (Helicobacter pylori, UniProt G2J5T2); test: FRET peptide assay of HpHtrA activity; assay type: biochemical; conditions: 5 µM FRET peptide, 250 nM HpHtrA, 37 °C, 50 mM HEPES pH 7.4, read-out: IC50 of HpHtrA inhibition
T1 construct: (HpHtrA, G18-K475, UniProt G2J5T2); GST (N, cleaved yes); made in house; host or cells: E. coli BL21
T1 sequence (G2J5T2 18-475): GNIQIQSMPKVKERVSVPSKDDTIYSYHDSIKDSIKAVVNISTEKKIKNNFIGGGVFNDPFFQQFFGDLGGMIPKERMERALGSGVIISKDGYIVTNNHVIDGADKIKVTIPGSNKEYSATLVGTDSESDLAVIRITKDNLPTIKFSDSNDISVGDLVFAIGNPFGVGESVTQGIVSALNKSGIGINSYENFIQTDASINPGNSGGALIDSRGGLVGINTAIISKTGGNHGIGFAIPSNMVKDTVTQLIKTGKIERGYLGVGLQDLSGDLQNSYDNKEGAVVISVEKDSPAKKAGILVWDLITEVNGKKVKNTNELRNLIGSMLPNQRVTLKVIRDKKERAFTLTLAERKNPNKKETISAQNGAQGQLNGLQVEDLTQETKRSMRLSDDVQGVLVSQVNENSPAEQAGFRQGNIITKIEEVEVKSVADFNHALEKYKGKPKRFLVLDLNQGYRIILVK
Description: For the establishment of a FRET-based assay for the quantification of the HpHtrA activity, the 2-Abz/3-nitrotyrosine FRET pair[53]–[55] was introduced into the sequence AQRVAF: the fluorophore (2-Abz, Ex/Em 320/435 nm) was coupled at the N-terminus, whereas the quencher (3-nitrotyrosine, Ex 425 nm[56]) was positioned at the C-end. The FRET activity of this peptide was first confirmed by measuring the fluorescence emission in the range 400–450 nm before and after the trypsin-mediated cleavage of the peptide bond R_V (Fig. S3). The measurements were performed in a black, flat-bottom 96-well plate (Nunc, Thermo Scientific, Schwerte, Germany) at 37 °C. 5 µM of the peptide were incubated with 250 nM HpHtrA and 125 nM trypsin in 50 mM HEPES buffer (pH 7.4). […] Cleavage of the peptide leads to increasing fluorescence, which was measured in a plate reader (Infinite 200 PRO, TECAN, Groedig, Austria) with a filter setting of 320 nm/425 nm (Ex/Em). Statistical analysis was performed with GraphPad Prism software (Vers. 8.0.2). […] Three independent experiments containing three technical replicates were analyzed for every sample. Significance is indicated as non-significant (ns) for p > 0.05, * for p < 0.05, ** for p < 0.01, *** for p < 0.001, and **** for p < 0.0001.

HpHtrA [2] = biological target: T1, HpHtrA; test: in vitro E-cadherin (hCdh1) cleavage by HpHtrA (Western blot); assay type: biochemical; conditions: 50 ng hCdh1, 250 ng HpHtrA, 16 h, 37 °C; for effect on HpHtrA-mediated hCdh1 cleavage/fragmentation: 1 mM
Description: The proteins were separated by SDS-PAGE and visualized by staining with Coomassie Brilliant Blue G250 (Lactan, Vienna, Austria). […] Proteins were separated using SDS-PAGE and blotted onto a nitrocellulose membrane. Human Cdh1 was detected by an antibody recognizing the EC5 domain of hCdh1 (Abcam, Cambridge, UK) and a polyclonal serum was used to detect HpHtrA[22]. Independent experiments were repeated at least three times.

HpHtrA D165A = biological target: T2, HpHtrA D165A (Helicobacter pylori, UniProt G2J5T2, D165A); test: thermal shift assay; assay type: binding; parameters: (HpHtrA, G18-K475, UniProt G2J5T2); GST (N, cleaved yes); made in house; host or cells: E. coli BL21
T2 sequence (G2J5T2 18-475 D165A): T1 sequence (G2J5T2 18-475) with D148A
Description: (§1) Recombinant HpHtrA proteins (wt, S164A, D165A, S166A, D168A) in 50 mM HEPES buffer (pH 7.4) were mixed with SYPRO Orange (Sigma-Aldrich, Vienna, Austria) to final concentrations of 4 µM HpHtrA and 7 × SYPRO Orange in a 96-well PCR plate. […] Fluorescence data was collected using an Applied Bioscience StepOne Plus PCR cycler (Thermo Fisher Scientific, Schwerte, Germany) during a temperature ramp from 25–95 °C (0.5 °C per min) with a 4 min hold at 25 °C and 95 °C. SYPRO Orange binds to exposed hydrophobic regions within the denatured HpHtrA proteins, which increases the fluorescence of the dye[57],[58]. The fluorescence emission signal can then be used to determine the melting temperature of the protein, which is located at the infliction point of the fluorescence signal curve. The experiment was performed in triplicates.

HpHtrA wt = biological target: T3, HpHtrA wt (Helicobacter pylori, UniProt G2J5T2); test: thermal shift assay; assay type: binding; parameters: (HpHtrA, G18-K475, UniProt G2J5T2); GST (N, cleaved yes); made in house; host or cells: E. coli BL21
T3 sequence (G2J5T2 18-475): T1 sequence (G2J5T2 18-475)
Description: as §1

| Compound | IC50 (HpHtrA [1]; after 15 min) [µM] | IC50 (HpHtrA [1]; after 180 min) [µM] | effect on HpHtrA-mediated hCdh1 cleavage/fragmentation (HpHtrA [2]) | thermal destabilization (ΔTm) (HpHtrA D165A; compared with wt and S164A) | thermal destabilization (ΔTm) (HpHtrA wt; HpHtrA wt, higher concentrations of ion) | thermal stabilization (ΔTm) (HpHtrA wt; HpHtrA wt, low concentrations of ion) | concentration that clearly inhibited HpHtrA-mediated hCdh1 fragmentation (HpHtrA [2]) [µM] | thermal stabilization (ΔTm) (HpHtrA D165A; low/increasing concentrations of ion) | concentration at which HpHtrA wt was stabilized (HpHtrA wt; 4 µM HpHtrA wt, SYPRO Orange, 25–95 °C) |
| --- | --- | --- | --- | --- | --- | --- | --- | --- | --- |
| [Cu+2] [Cu^++, CuCl2] | 0.295 | 0.937 | strongly decreased | more strongly destabilized | destabilized | stabilized | – | – | – |
| [Zn+2] [Zn^++, ZnCl2] | 0.65 | 2.57 | strongly decreased | – | – | – | 50 | did not stabilize | approximately 10 µM |
